# Source: patent EP0942754B1, “CONJUGATES USEFUL IN THE TREATMENT OF PROSTATE CANCER” (priority 1996, dated 1998)
# pEC50: −log10 of the molar value. Non-standard residues stand in square brackets, D forms with d. Residues, ends and D or L forms follow the SMILES beside them. *: point of attachment. Doxorubicin(3'-N) = COc1cccc2c1C(=O)c1c(O)c3c(c(O)c1C2=O)C[C@@](O)(C(=O)CO)C[C@@H]3O[C@H]1C[C@H](N*)[C@H](O)[C@H](C)O1; Hyp = O=C(O)[C@@H]1C[C@@H](O)CN1; tBuAla = CC(C)(C)C[C@H](N)C(=O)O; Chg = N[C@H](C(=O)O)C1CCCCC1
# Key:
# [1] = tested on: LNCap prostate tumor cells (which express enzymatically active PSA); assay: In vitro cytotoxicity of peptidyl derivatives of doxorubicin, Alamar Blue assay, LNCaP cells; format: cell-based; settings: 72 HRS incubation, free conjugate tested, read-out: LNCaP Cell Kill in 72 HRS EC 50
# Method: (§1) The cytotoxicities of the cleaveable oligopeptide-doxorubicin conjugates, prepared as described in Examples 3 and 4, against a line of cells which is known to be killed by unmodified doxorubicin were assessed with an Alamar Blue assay. Specifically, cell cultures of LNCap prostate tumor cells (which express enzymatically active PSA) or DuPRO cells in 96 well plates was diluted with medium ([…]-α [MEM-α]) containing various concentrations of a given conjugate (final plate well volume of 200µl). The cells were incubated for 3 days at 37°C, 20µl of Alamar Blue is added to the assay well. The cells were further incubated and the assay plates were read on a EL-310 ELISA reader at the dual wavelengths of 570 and 600 nm at 4 and 7 hours after addition of Alamar Blue. Relative percentage viability at the various concentration of conjugate tested was then calculated versus control (no conjugate) cultures. If no salt is indicated, the free conjugate was tested.
# DuPRO cells = assay: In vitro cytotoxicity of peptidyl derivatives of doxorubicin, Alamar Blue assay, DuPRO cells; format: cell-based; settings: DuPRO cells (value in parentheses in the LNCaP column), 72 HRS incubation, read-out: Cell Kill in 72 HRS EC 50 (µM), DuPRO
# Method: as §1
# [2] = molecular target: T1, enzymatically active free PSA (Homo sapiens, UniProt P07288); assay: Recognition of oligopeptide-doxorubicin conjugates by free PSA (HPLC, time to 50% cleavage); format: biochemical; settings: conjugate added to PSA at a molar ratio of 100 to 1 in PSA digestion buffer; free conjugate tested
# T1 construct: enzymatically active free PSA
# Method: The conjugates prepared as described in Examples 3-5 were individually dissolved in PSA digestion buffer (12 mM tris(hydroxymethyl)-aminomethane pH8.0, 25 mM NaCl, 0.5 mM CaCl2) and the solution added to PSA at a molar ration of 100 to 1. Alternatively, the PSA digestion buffer utilized is 50 mM tris(hydroxymethyl)-aminomethane pH7.4, 140 mM NaCl. The reaction is quenched after various reaction times by the addition of trifluoroacetic acid (TFA) to a final 1% (volume/volume). Alternatively the reaction is quenched with 10mM ZnCl2. The quenched reaction was analyzed by HPLC on a reversed-phase C18 column using an aqueous 0.1%TFA/acetonitrile gradient. […] If no salt is indicated for the conjugate, the free conjugate was tested. The oligopeptide-cytotoxic agent conjugates described in Examples 4 and 5 were assessed for the amount of time (in minutes) required for 50% cleavage of the oligopeptide with enzymatically active free PSA and 50% cleavage occurred in less than 2 hours for those conjugates.
# T1 sequence (P07288 25-261): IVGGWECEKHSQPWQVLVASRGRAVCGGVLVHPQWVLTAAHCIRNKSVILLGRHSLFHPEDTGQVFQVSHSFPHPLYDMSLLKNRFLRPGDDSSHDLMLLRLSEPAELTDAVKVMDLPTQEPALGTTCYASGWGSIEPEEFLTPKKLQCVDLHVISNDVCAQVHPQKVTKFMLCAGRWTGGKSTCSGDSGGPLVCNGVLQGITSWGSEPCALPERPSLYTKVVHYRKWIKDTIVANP
Compound,pEC50 [1],EC50 (DuPRO cells),Time to 50% Substrate Cleavage by PSA [2],Time to 50% Substrate Cleavage by PSA (Min) [2]
"COc1cccc2c1C(=O)c1c(O)c3c(c(O)c1C2=O)C[C@@](O)(C(=O)CO)C[C@@H]3O[C@H]1C[C@H](NC(=O)[C@H](CC(C)C)NC(=O)[C@H](CO)NC(=O)[C@H](CCC(N)=O)NC(=O)[C@@H](NC(=O)[C@H](CO)NC(=O)[C@H](C)NC(=O)[C@@H]2C[C@@H](O)CN2C(C)=O)C2CCCCC2)[C@H](O)[C@H](C)O1 [Ac-(4-trans-L-Hyp)ASChgQ-SL-DOX (3'), [N-Ac-(4-trans-L-Hyp)]-Ala-Ser-Chg-Gln-Ser-Leu-Dox] (HELM PEPTIDE1{[ac].[Hyp].A.S.[O=C([C@@H](N[*:1])C1CCCCC1)[*:2]].Q.S.L.[COc1cccc2c1C(=O)c1c(O)c3c(c(O)c1C2=O)C[C@@](O)(C(=O)CO)C[C@@H]3O[C@H]1C[C@H](N[*:1])[C@H](O)[C@H](C)O1]}$$$$V2.0)",5.35,90 µM,20 min,
COc1cccc2c1C(=O)c1c(O)c3c(c(O)c1C2=O)C[C@@](O)(C(=O)CO)C[C@@H]3O[C@H]1C[C@H](NC(=O)[C@H](CC(C)(C)C)NC(=O)[C@H](CO)NC(=O)[C@H](CCC(N)=O)NC(=O)[C@@H](NC(=O)[C@H](CO)NC(=O)[C@H](C)NC(=O)[C@@H]2C[C@@H](O)CN2C(C)=O)C2CCCCC2)[C@H](O)[C@H](C)O1 [Ac-(4-trans-L-Hyp)ASChgQ-StBuAla-DOX (3')] (Ac-[Hyp]AS[Chg]QS[tBuAla]-{Doxorubicin(3'-N)}),4.00,> 100 µM,25 min,
Ac-(4-trans-L-Hyp)ASChgQ-SThi-DOX (3'),,,,INSOLUBLE
PEG(2)-(4-trans-L-Hyp)ASChgQ-SL-DOX (3'),,,20 min,
